On to `CNc1nc(Nc2ccc(Cl)c(Cl)c2)ncc1NC(C)=O`, for which the melting point was 267 °C.

Consider `COc1ccc(-c2csc(NC(=O)C(=O)OCC(C)c3ccccc3)n2)cc1` (configuration not stated), for which the melting point was in the range of 150 to 152 °C.

`O=C(O)/C=C/c1ccc(/C=C/c2ccncc2)nc1` showed a melting point of more than 250 °C.

`CC(C)(C)OC(=O)N1CC(CCl)c2c1ccc1ccc(S(=O)(=O)N(Cc3ccccc3)Cc3ccccc3)cc21` (configuration not stated) returned a melting point of 131 to 133 °C.

As to `CCOC(=O)c1c(C)nc(-c2ccccc2)nc1-c1ccncc1`, the melting point was 95 to 96 °C.

As for `N[C@@H](Cc1ccccc1)C(=O)N(CC1CC(Cl)=NO1)C(=O)OCc1ccccc1` (some centres not stated), the melting point was in the range of 141 to 148 °C.

For `COc1ccc(S(=O)(=O)N(CC(N)=O)c2ccc(Cl)cc2Cc2c(Cl)cccc2Cl)cc1OC`, the melting point was 195 °C.

Molecule `COCCOc1cc2c(cc1-c1ccc(F)cc1)NC(=O)CC(c1cccc(-n3ccnc3)c1)=N2` showed a melting point of 196 to 197 °C.

In the case of `COc1ccc2[nH]cc3c2c1[C@@]1(C)OCCN(C)[C@@H]1C3` (relative stereo), the melting point fell in the range of 200 to 202 °C.

`CCOC(=O)c1[nH]c2ccc(C)cc2c1C` had a melting point of 118 °C.

In turn, `O=C(Nc1ccccc1)N1CCC(c2nn(-c3ccccc3)c3cc(F)ccc23)CC1` displayed a melting point of 163 to 165 °C.

`COCCN(CCOC)C(=O)c1ccc(C(=O)N2CCN(c3ncccc3NC(C)C)CC2)cc1` came in with a melting point of 82 to 83 °C.

Molecule `CC(C)OCC(=O)CC1c2ccccc2C(=O)N1c1ccc2ccc(Cl)nc2n1` (configuration not stated) displayed a melting point of 200 °C.

With `O=[N+]([O-])c1ccc(F)c(CO)c1`, the melting point fell in the range of 50 to 53 °C.

The molecule `COC(=O)CCCCNC(=O)C(COS(C)(=O)=O)NS(=O)(=O)c1ccc(Cl)cc1` (racemic) showed a melting point of 95 to 97 °C.

In turn, `O=C(NC/C=C/c1ccccc1)c1ccc(Cl)c(Cl)c1` showed a melting point of 105 °C.

As to `Cc1cn(C2CC(OP(N)O)C(CO[Si](C)(C)C(C)(C)C)O2)c(=O)[nH]c1=O` (configuration not stated), the melting point was in the range of 68 to 70 °C.

Consider `CCN(C=Nc1ccc2c(c1)nc(N(C)C)c1cc(N=CN(CC)CC)ccc12)CC`, for which the melting point fell in the range of 124 to 126 °C.

In turn, `O=C1NS(=O)(=O)CCC1c1ccc([N+](=O)[O-])cc1F` (configuration not stated) showed a melting point of 218 to 219 °C.

As to `CCCCNC(=O)[C@@H]1CCCN1C(=O)OCc1ccccc1`, the melting point was in the range of 88 to 90 °C.

Molecule `CC(C)(C)C1=NN(c2ccc(S(=O)(=O)O)cc2)C(c2ccc(Cl)cc2)C1` (configuration not stated) gave a melting point of 92.5 °C.

`CC1(C)OCCc2nc(-c3ccccc3)sc21` yielded a melting point of 65 to 66 °C.

Turning to `O=C(O)COCCCCS(=O)(=O)c1cnc(-c2ccccc2)c(-c2ccccc2)n1`, the melting point is 123 to 125 °C.

`CCc1nc2c(N)nc3cc(/C=C/C(=O)N(C)C)ccc3c2n1CC1CCOCC1` returned a melting point of more than 260 °C.

As to `Cc1cnn(-c2ncc(C(=O)N3Cc4cccn4Cc4ccccc43)c(C(F)(F)F)n2)c1`, the melting point was 214 to 217 °C.

Regarding `CONC(=O)Nc1ccc(-c2sc3c(c2CNC(C)c2ccccc2)c(=O)n(C2CCC(O)CC2)c(=O)n3Cc2c(F)cccc2F)cc1` (configuration not stated), the melting point fell in the range of 137 to 138 °C.

In the case of `CCNC(=O)c1cc(NS(=O)(=O)c2ccc(OC)cc2)ccc1Oc1cncc(Cl)c1`, the melting point lay within 146 to 147 °C.

The molecule `O=C(NC[C@H]1CN(c2cc(F)c(N3CCC(n4ncnn4)CC3)c(F)c2)C(=O)O1)C(Cl)Cl` yielded a melting point of 160 to 162 °C.

Regarding `NC(=O)c1cccc(-c2cccc3sc(Cc4ccc(F)c(F)c4)cc23)c1`, the melting point is 189 to 190 °C.

`CSc1cc(CBr)cc(S(N)(=O)=O)c1Cc1ccccc1` had a melting point of 149 to 150 °C.

As for `Cc1cccc(COn2nnc3ccc(Cn4ccnc4)cc32)c1`, the melting point was 120 °C.

As to `COCCOc1ccc(CCCOC(=O)NS(=O)(=O)NCCC(C)C)c(Oc2ncc(C(F)(F)F)cc2Cl)c1`, the melting point lay in the range of 123 to 124 °C.

Consider `CCN1C(=O)Cc2cc(C=O)ccc21`, for which the melting point lay in the range of 126 to 127 °C.

Take `CC(C)(C)NC(=O)[C@H](Cc1ccc(OCc2c(Cl)cccc2Cl)cc1)NC(=O)OC(C)(C)C`: the melting point was 82 to 86 °C.

Take `CCc1nc2ncnn2c(N)c1CCc1ccccc1`: the melting point is 210 to 211 °C.

As for `COC(=O)CCCC=Cc1nn(-c2ccc(F)cc2)c2c1CCC2`, the melting point was in the range of 67 to 68 °C.

In turn, `Nc1cc(S(N)(=O)=O)ccc1S(=O)(=O)CCCO` came in with a melting point of 136 to 138 °C.

For `Cc1ccc(S(=O)(=O)n2c(-c3cn(C)c4ccc(O)cc34)cc3cccnc32)cc1`, the melting point lay within 256 to 257 °C.

`NC(=O)c1nnn(Cc2ccc(C(=O)c3ccc(Cl)cc3)cc2)c1N` had a melting point of 229 to 231 °C.

For `COC(=O)c1ccc(Cl)cc1NC(=O)CSc1ccccc1Br`, the melting point was in the range of 99 to 101 °C.

Molecule `CC(C)(C)c1cc(C(=O)c2ccc([N+](=O)[O-])cc2)cc(C(C)(C)C)c1O` displayed a melting point of 178 to 180 °C.

`O=C(Nc1ccc(CN2CCC(=O)C(=C3SC=CS3)C2=O)cc1)OCc1ccccc1`: the melting point fell in the range of 175 to 176 °C.

Consider `CCN(CC)C(=O)n1ccc(S(=O)(=O)c2cc(Cl)cc(Cl)c2)n1`, for which the melting point fell in the range of 103 to 106 °C.

`O=c1[nH]c(=O)n(C2COC(CO)C2CO)cc1C=CBr` (configuration not stated): the melting point lay within 142 to 143 °C.

The molecule `CN(C)CCOc1ccc(C#N)cn1` had a melting point of 58 °C.

Regarding `Fc1cccc(Cl)c1-c1c(Cl)cc(-n2cncn2)nc1Cl`, the melting point turned out to be 210 °C.

`COc1ccc(I)c2c1CC(NC(C)=O)CC2` (configuration not stated): the melting point turned out to be 190 °C.

Molecule `CCOC(C)Oc1ccc2c(c1C=O)OCO2` (configuration not stated) came in with a melting point of 48 to 50 °C.

With `Nc1cc(CO)cc(S(N)(=O)=O)c1Oc1ccccc1`, the melting point turned out to be 170 °C.

As for `CCCCn1nc(C)c(C(N)=O)c1Cc1ccc(-c2ccccc2-c2nnn[nH]2)cc1`, the melting point lay in the range of 204 to 208 °C.

`O=C(O)CCc1nc(-c2cc3ccccc3o2)cs1` yielded a melting point of 203 to 205 °C.

In turn, `CC(c1ccc(-c2ccccc2)c(F)c1)c1nc(CN2CCOCC2)no1` (configuration not stated) had a melting point of 91.5 to 92.5 °C.

For the molecule `O=Cc1cc(Br)c(C=O)cc1Br`, the melting point was 184 to 189 °C.

Molecule `Cc1nc(CC2CCN(c3ccc(F)cc3)CC2)nc(C(=O)NCC(=O)O)c1O` displayed a melting point of 104 to 105 °C.

The molecule `CCOC(=O)NCC#N` registered a melting point of 49 °C.

For the molecule `C=CCOc1ccc(C(=O)C#Cc2c[nH]c3ccccc23)c(O)c1`, the melting point is 228 to 230 °C.

Molecule `CN1CCN(c2cccc3ccc(OC(=O)c4ccccc4)cc23)CC1` gave a melting point of 82 to 82.5 °C.

`CCc1nc2c(C)cc(C)nc2n1Cc1ccc(C(c2ccccc2)C(C)(C)C(=O)O)cc1` (configuration not stated) returned a melting point of 103 to 106 °C.

Regarding `CNc1ncn(C)c1C(=O)NCc1ccccc1`, the melting point lay in the range of 110 to 111 °C.

For `FC(F)(F)Oc1ccc(C2N=C(Nc3cccc(-c4cncnc4)c3)n3ccnc32)cc1` (configuration not stated), the melting point was in the range of 120 to 130 °C.

Molecule `CCOc1ccc2c(c1)n(C1CCCCC1)c(=O)n2S(=O)(=O)c1ccc(NC(=O)N(CC)CC)cc1OC` gave a melting point of 165 °C.

As to `CC(=O)Nc1ccc(-c2c(Cl)c(CCl)nc3sc4c(c23)CCN(Cc2ccccc2)C4)cc1`, the melting point fell in the range of 203 to 204 °C.

As a reminder, the melting point is the temperature, or range, at which the solid turns liquid.

Values taken from a melting point compilation (Tetko et al.; mined from patent text by program, amines drawn as free bases though some values may be those of a salt).
